Laboratory results as given in patent US6410580B1, “Sulfonylamino derivatives which inhibit matrix-degrading metalloproteinases” (Novartis AG, priority 2000, dated 2002).

Row | Structure (SMILES) | melting point
1 | CN1C(=O)N(CC[C@@H](NS(=O)(=O)c2ccc(-c3ccc(Cl)cc3)cc2)C(=O)O)C(=O)C1(C)C [Example 35, (2R)-(4′-Chlorobiphenyl-4-sulfonylamino)-4-(3,4,4-trimethyl-2,5-dioxoimidazolidin-1-yl)-butyric Acid] | 43 °C
2 | O=C(NO)[C@@H](CCCN1C(=O)c2ccccc2S1(=O)=O)NS(=O)(=O)c1ccc(-c2ccc(Cl)cc2)cc1 [Example 18, (2R)-(4′-Chlorobiphenyl-4-sulfonylamino)-5-(1,1,3-trioxo-2,3-dihydrobenzoisothiazol-2-yl)pentanoic Acid Hydroxyamide] | 200 to 205 °C (dec.)
3 | Cc1ccc(S(=O)(=O)NCCC[C@@H](NS(=O)(=O)c2ccc(-c3ccc(Cl)cc3)cc2)C(=O)O)cc1 [Example 7, (2R)-(4′-Chlorobiphenyl-4-sulfonylamino)-5-(4-methylbenzenesulfonylamino)pentanoic Acid] | 62 °C
4 | Cn1c(=O)n(CCC[C@@H](NS(=O)(=O)c2ccc(-c3ccc(Cl)cc3)cc2)C(=O)O)c(=O)c2ccccc21 [Example 4, (2R)-(4′-Chlorobiphenyl-4-sulfonylamino)-5-(1,2,3,4-tetrahydro-1-methyl-2,4-dioxoquinazolin-3-yl)pentanoic Acid] | 188 to 191 °C
5 | CC1(C)NC(=O)N(CCCCC(NS(=O)(=O)c2ccc(-c3ccc(Cl)cc3)cc2)C(=O)O)C1=O [Example 32, (2R,S)-(4′-Chlorobiphenyl-4-sulfonylamino)-6-(4,4-dimethyl-2,5-dioxoimidazolidin-1-yl)-hexanoic Acid] | 78 to 80 °C
6 | O=C(NO)[C@@H](CCCN1C(=O)c2ccccc2C1=O)NS(=O)(=O)c1ccc(-c2ccc(Cl)cc2)cc1 [Example 2, (2R)-(4′-Chiorobiphenyl4-sulfonylamino)-5-(1,3-dioxo-1,3-dihydroisoindol-2-yl)pentanoic Acid Hydroxyamide] | 204 to 206 °C (dec.)
7 | CN1C(=O)N(CC(NS(=O)(=O)c2ccc(-c3ccc(Cl)cc3)cc2)C(=O)O)C(=O)C1(C)C [Example 39, (2R,S)-(4′-Chlorobiphenyl-4-sulfonylamino)-3-(3,4,4-trimethyl-1,2,5-dioxoimidazolidin-1-yl)propanoic Acid] | 198 to 201 °C
8 | Cn1c(=O)n(CCC[C@@H](NS(=O)(=O)c2ccc(-c3ccccc3)cc2)C(=O)NO)c(=O)c2ccccc21 [Example 20, (2R)-(4-Biphenylsulfonylamino)-5-(1,2,3,4-tetrahydro-1-methyl-2,4-dioxoquinazolin-3-yl)pentanoic Acid Hydroxyamide] | 202 to 203 °C
9 | O=C(O)[C@@H](CCCN1C(=O)c2ccccc2S1(=O)=O)NS(=O)(=O)c1ccc(-c2ccc(Cl)cc2)cc1 [Example 3, (2R)-(4′-Chlorobiphenyl-4-sulfonylamino)-5-(1,1,3-trioxo-2,3-dihydrobenzoisothiazol-2-yl)pentanoic Acid] | 177 to 179 °C
10 | CN1C(=O)N(CC[C@@H](NS(=O)(=O)c2ccc(-c3ccc(Cl)cc3)cc2)C(=O)NO)C(=O)C1(C)C [Example 38, (2R)-(4′-Chlorobiphenyl-4-sulfonylamino)-4-(3,4,4-trimethyl-2,5-dioxoimidazolidin-1-yl)-butyric Acid Hydroxyamide] | 117 to 120 °C
11 | Cn1c(=O)n(CCCCC(NS(=O)(=O)c2ccc(-c3ccc(Cl)cc3)cc2)C(=O)O)c(=O)c2ccccc21 [Example 31, (2R,S)-(4′-Chlorobiphenyl-4-sulfonylamino)-6-(1,2,3,4-tetrahydro-1-methyl-2,4-dioxoquinazolin-3-yl)hexanoic Acid] | 208 to 210 °C
12 | Cn1c(=O)n(CCC[C@@H](NS(=O)(=O)c2ccc(-c3ccc(Cl)cc3)cc2)C(=O)NO)c(=O)c2ccccc21 [Example 19, (2R)-(4′-Chlorobiphenyl-4-sulfonylamino)-5-(1,2,3,4-tetrahydro-1-methyl-2,4-dioxoquinazolin-3-yl)pentanoic Acid Hydroxyamide] | 235 °C
13 | O=C(O)[C@@H](CCN1C(=O)[C@@H]2Cc3ccccc3CN2C1=O)NS(=O)(=O)c1ccc(-c2ccc(Cl)cc2)cc1 [Example 36, (2R)-(4′-Chlorobiphenyl-4-sulfonylamino)-4-[(1,3-dioxo-1,5,10, (10aS)-tetrahydroimidazo-[1,5-b]isoquinolin-2-yl)]butyric Acid] | 70 °C

The remaining lines, values ahead:

Row | melting point | Structure (SMILES)
14 | 139 to 141 °C | O=C(NO)[C@@H](CC(=O)N1CCOCC1)NS(=O)(=O)c1ccc(-c2ccc(Cl)cc2)cc1 [Example 45, (2R)-(4′-Chlorobiphenyl-4-sulfonylamino)-4-morpholin-4-yI-4-oxobutyric Acid Hydroxyamide]
15 | 218 °C (dec.) | Cn1c(=O)n(CC(NS(=O)(=O)c2ccc(-c3ccc(Cl)cc3)cc2)C(=O)O)c(=O)c2ccccc21 [Example 40, (2R,S)-(4′-Chlorobiphenyl-4-sulfonylamino)-3-(1,2,3,4-tetrahydro-1-methyl-2,4-dioxoquinazolin-3-yl)propanoic Acid]
16 | 161 to 163 °C | O=C(NO)[C@@H](CC(=O)N1CCOCC1)NS(=O)(=O)c1ccc(Oc2ccccc2)cc1 [Example 44, (2R)-(4-Phenyloxybenzenesulfonylamino)-4-morpholin-4-yl-4-oxobutyric Acid Hydroxyamide]
17 | 179 to 181 °C | O=C(O)[C@@H](CCCN1C(=O)c2ccccc2C1=O)NS(=O)(=O)c1ccc(-c2ccc(Cl)cc2)cc1 [Example 1, (2R)-(4′-Chlorobiphenyl-4-sulfonylamino)-5-(1,3-dioxo-1,3-dihydroisoindol-2-yl)pentanoic Acid]
18 | 222 to 224 °C | Cn1c(=O)n(CCC[C@@H](NS(=O)(=O)c2ccc(-c3ccccc3)cc2)C(=O)O)c(=O)c2ccccc21 [Example 5, (2R)-(4-Biphenylsulfonylamino)-5-(1,2,3,4-tetrahydro-1-methyl-2,4-dioxoquinazolin-3-yl)pentanoic Acid]
19 | 144 to 146 °C | O=C(O)[C@@H](CC(=O)N1CCOCC1)NS(=O)(=O)c1ccc(-c2ccc(Cl)cc2)cc1 [Example 43, (2R)-(4′-Chlorobiphenyl-4-sulfonylamino)-4-morpholin-4-yl-4-oxobutyric Acid]
20 | 147 to 149 °C | O=C(O)[C@@H](CC(=O)N1CCOCC1)NS(=O)(=O)c1ccc(Oc2ccccc2)cc1 [Example 42, (2R)-(4-Phenyloxybenzenesulfonylamino)-4-morpholin-4-yl-4-oxobutyric Acid]
